# Data from ChEMBL document CHEMBL1128211, “3D-quantitative structure-activity relationships of human immunodeficiency virus type-1 proteinase inhibitors: comparative molecular field analysis of 2-heterosubstituted statine derivatives-implications for the design of novel inhibitors” (J Med Chem, 1995).
# pKi: −log10 of the molar value.
# Target: Human immunodeficiency virus type 1 protease (Human immunodeficiency virus 1, UniProt Q72874)
# Test: Inhibitory activity was determined against HIV type 1 protease
row,pKi,SMILES
1,5.77,CC(C)[C@H](NC(=O)OCc1ccccc1)C(=O)N[C@@H](Cc1ccccc1)[C@@H](O)[C@@H](NC1CCC(O)CC1)C(=O)N[C@H](C(=O)NCc1ccccc1)C(C)C (stereo in doubt; 282808)
2,7.48,CC(C)[C@H](NC(=O)OCCCCCN)C(=O)N[C@@H](Cc1ccccc1)[C@@H](O)[C@@H](NCc1ccccc1)C(=O)N[C@H](C(=O)NCc1ccccc1)C(C)C
3,7.52,CC(C)[C@H](NC(=O)OCc1ccccc1)C(=O)N[C@@H](Cc1ccccc1)[C@@H](O)[C@@H](NCc1ccccc1)C(=O)N[C@H](C(=O)OCc1nc2ccc([N+](=O)[O-])cc2[nH]1)C(C)C
4,7.43,CCOc1ccc(CN[C@@H](C(=O)NCc2ccccc2)[C@H](O)[C@H](Cc2ccccc2)NC(=O)[C@@H](NC(=O)OCc2ccccc2)C(C)(C)C)cc1
5,7.55,CC(C)[C@H](NC(=O)OCc1ccccc1)C(=O)N[C@@H](Cc1ccccc1)[C@@H](O)[C@@H](NC[C@H](O)c1ccccc1)C(=O)N[C@H](C(=O)NCc1nc2ccccc2[nH]1)C(C)C
6,7.81,COc1ccc(CN[C@@H](C(=O)NCC(=O)NCc2nc3ccccc3[nH]2)[C@H](O)[C@H](Cc2ccccc2)NC(=O)[C@@H](NC(=O)OCc2ccccc2)C(C)C)cc1
7,7.70,CC(C)[C@H](NC(=O)OCc1ccccc1)C(=O)N[C@@H](Cc1ccccc1)[C@@H](O)[C@@H](NCc1ccccc1)C(=O)N[C@H](C(=O)NCc1ccccc1)C(C)(C)C
8,7.74,COc1ccc(CN[C@@H](C(=O)N[C@H](C(=O)NCCc2ccc(O)cc2)C(C)C)[C@H](O)[C@H](Cc2ccccc2)NC(=O)[C@@H](NC(=O)OCc2ccccc2)C(C)C)cc1
9,8.11,COc1ccc(CN[C@@H](C(=O)N[C@H](C(=O)NCc2nc3ccccc3[nH]2)C(C)C)[C@H](O)[C@H](Cc2ccccc2)NC(=O)[C@@H](NC(=O)CCc2ccc(P(=O)(O)O)cc2)C(C)(C)C)cc1
10,7.85,COc1ccc(CN[C@@H](C(=O)N[C@H](C(=O)N[C@H](CO)c2ccccc2)C(C)C)[C@H](O)[C@H](Cc2ccccc2)NC(=O)[C@@H](NC(=O)OCc2ccccc2)C(C)C)cc1
11,8.22,COC(=O)CC[C@H](NC(=O)[C@H](NCc1ccc(OC)cc1)[C@H](O)[C@H](Cc1ccccc1)NC(=O)[C@@H](NC(=O)OCc1ccccc1)C(C)C)C(=O)NCc1ccc(OC)cc1O
12,8.02,COc1cccc(CN[C@@H](C(=O)N[C@H](C(=O)NCc2ccccc2)C(C)C)[C@H](O)[C@H](Cc2ccccc2)NC(=O)[C@@H](NC(=O)OCc2ccccc2)C(C)C)c1
13,5.96,COC(=O)[C@@H](NC(=O)[C@H](NCc1ccccc1)[C@H](O)[C@H](Cc1ccccc1)NC(=O)[C@@H](NC(=O)OCc1ccccc1)C(C)C)C(C)C
14,7.96,CC(C)C[C@H](NC(=O)[C@H](NCc1ccccc1)[C@H](O)[C@H](Cc1ccccc1)NC(=O)[C@@H](NC(=O)OCc1ccccc1)C(C)C)C(=O)NCc1ccccc1
15,7.90,COc1ccc(CCN[C@@H](C(=O)N[C@H](C(=O)NCc2nc3ccccc3[nH]2)C(C)C)[C@H](O)[C@H](Cc2ccccc2)NC(=O)[C@@H](NC(=O)OCc2ccccc2)C(C)C)cc1
16,7.82,COc1ccc(CN[C@@H](C(=O)N[C@H](C(=O)Nc2ccc3c(c2)OCCO3)C(C)C)[C@H](O)[C@H](Cc2ccccc2)NC(=O)[C@@H](NC(=O)OCc2ccccc2)C(C)C)cc1
17,7.64,CC(C)[C@H](NC(=O)OCc1ccccc1)C(=O)N[C@@H](Cc1ccccc1)[C@@H](O)[C@@H](NCc1ccccc1)C(=O)N[C@H](C(=O)OCc1nc2cc(Cl)c(Cl)cc2[nH]1)C(C)C
18,7.72,COc1ccc(CN[C@@H](C(=O)N[C@H](C(=O)NCCn2cnc3ccccc32)C(C)C)[C@H](O)[C@H](Cc2ccccc2)NC(=O)[C@@H](NC(=O)OCc2ccccc2)C(C)C)cc1
19,7.87,CC(C)[C@H](NC(=O)OCc1ccccc1)C(=O)N[C@@H](Cc1ccccc1)[C@@H](O)[C@@H](NCc1ccccc1)C(=O)N[C@H](C(=O)NCc1cccnc1)C(C)C
20,7.85,COc1ccc(CN[C@@H](C(=O)N[C@H](C(=O)NCc2ccc(N3NC=CS3)cc2)C(C)C)[C@H](O)[C@H](Cc2ccccc2)NC(=O)[C@@H](NC(=O)OCc2ccccc2)C(C)C)cc1
21,7.90,COc1ccc(CN[C@@H](C(=O)N[C@H](C(=O)NCc2nc3ccccc3[nH]2)C(C)C)[C@H](O)[C@H](Cc2ccccc2)NC(=O)[C@@H](NC(=O)OCc2ccccc2)C(C)C)cc1OC

# The next lines start with the compound.
row,SMILES,pKi
1,CC(=O)NCc1ccc(CN[C@@H](C(=O)N[C@H]2c3ccccc3CC2O)[C@H](O)[C@H](Cc2ccccc2)NC(=O)OC(C)(C)C)cc1 (stereo partly drawn),7.15
2,CC(C)(C)OC(=O)N[C@@H](Cc1ccccc1)[C@@H](O)[C@@H](NCc1ccc(CNC(=O)CCc2nc3ccccc3[nH]2)cc1)C(=O)NCc1ccccc1,6.17
3,CC(C)(C)OC(=O)N[C@@H](Cc1ccccc1)[C@@H](O)[C@@H](NCc1ccc(OCCO)cc1)C(=O)N[C@H]1c2ccccc2CC1O (stereo partly drawn),7.10
4,COc1ccc(CN[C@@H](C(=O)N[C@H]2c3ccccc3CC2O)[C@H](O)[C@H](Cc2ccccc2)NC(=O)[C@@H](NC(=O)OCc2ccccc2)C(C)(C)C)cc1 (stereo partly drawn),5.74
5,CC(C)(C)[C@H](NC(=O)OCc1ccccc1)C(=O)N[C@@H](Cc1ccccc1)[C@@H](O)[C@@H](NCc1ccc(OCCO)cc1)C(=O)NCc1ccccc1,7.47
6,CC(C)(C)[C@H](NC(=O)OCc1ccccc1)C(=O)N[C@@H](Cc1ccccc1)[C@@H](O)[C@@H](NCc1ccccc1)C(=O)NC(CO)c1ccccc1 (stereo partly drawn),6.97
7,CC(C)[C@H](NC(=O)[C@H](NCc1ccccc1)[C@H](O)[C@H](Cc1ccccc1)NC(=O)[C@@H](NC(=O)OCc1ccccn1)C(C)(C)C)C(=O)NCc1ccccc1,8.91
8,CC(C)[C@H](NC(=O)[C@H](NCc1ccc(Cl)cc1)[C@H](O)[C@@H](N)Cc1ccccc1)C(=O)NCc1nc2ccccc2[nH]1,6.74
9,CC(C)(C)[C@H](NC(=O)OCc1ccccc1)C(=O)N[C@@H](Cc1ccccc1)[C@@H](O)[C@@H](NCc1ccc(CNC(=O)Nc2ccccc2)cc1)C(=O)N[C@H]1c2ccccc2CC1O (stereo partly drawn),8.48
10,CC(C)(C)[C@H](NC(=O)OCc1ccccc1)C(=O)N[C@@H](Cc1ccccc1)[C@@H](O)[C@@H](NCc1ccccc1)C(=O)N[C@@H]1c2ccccc2CC1O (stereo partly drawn),5.80
11,CC(C)[C@H](NC(=O)[C@H](NCc1ccccc1)[C@H](O)[C@H](Cc1ccccc1)NC(=O)[C@@H](NC(=O)N(C)c1ccccc1)C(C)(C)C)C(=O)NCc1ccccc1,6.19
12,CC(C)(C)[C@H](NC(=O)OCc1ccccc1)C(=O)N[C@@H](Cc1ccccc1)[C@@H](O)[C@@H](NCc1ccc(OCCN2CCOCC2)cc1)C(=O)N[C@H]1c2ccccc2CC1O (stereo partly drawn),8.02
13,CCOC(=O)[C@H](NCc1ccc(Cl)cc1)[C@H](O)[C@H](Cc1ccc(OC)cc1)NC(=O)OC(C)(C)C,5.43
14,COc1ccc(CN[C@@H](C(=O)N[C@H](C(=O)NCc2nc3ccccc3[nH]2)C(C)C)[C@H](O)[C@H](Cc2ccccc2)NC(=O)[C@@H](N)C(C)(C)C)cc1,8.11
15,CCOc1ccc(CN[C@@H](C(=O)N[C@H]2c3ccccc3CC2O)[C@H](O)[C@H](Cc2ccccc2)NC(=O)OC(C)(C)C)cc1 (stereo partly drawn),7.04
16,CCOc1ccc(CN[C@@H](C(=O)N[C@H]2c3ccccc3CC2O)[C@H](O)[C@H](Cc2ccccc2)NC(=O)[C@@H](NC(=O)OCc2ccccc2)C(C)(C)C)cc1 (stereo partly drawn),8.00
17,CC(C)[C@H](NC(=O)CCCCCNC(=O)OC(C)(C)C)C(=O)N[C@@H](Cc1ccccc1)[C@@H](O)[C@@H](NCc1ccccc1)C(=O)N[C@H](C(=O)NCc1ccccc1)C(C)C,7.68
